# Assay results reported in patent US9895438B2, “Treatment of cancer with naltrexone” (Cancer Vaccine Institute, priority 2013, dated 2018).
# “Also recorded” adds a separate entry of the source. Read-outs that look alike come from different tables or passages of the source.
# Legend:
# TLR4 [1] = biological target: T1, TLR4 (Homo sapiens, UniProt O00206+Q9Y6Y9); details: Hutchinson et al. (2008); cited from earlier work
# T1 construct: host or cells: HEK-293
# TLR9 = biological target: T2, TLR9 (Homo sapiens, UniProt Q9NR96); assay: TLR9 antagonist assay, HEK-293 transfectants with alkaline phosphatase reporter gene (Invivogen panel); assay type: cell-based
# T2 construct: host or cells: HEK-293
# T2 sequence (Q9NR96 26-1032): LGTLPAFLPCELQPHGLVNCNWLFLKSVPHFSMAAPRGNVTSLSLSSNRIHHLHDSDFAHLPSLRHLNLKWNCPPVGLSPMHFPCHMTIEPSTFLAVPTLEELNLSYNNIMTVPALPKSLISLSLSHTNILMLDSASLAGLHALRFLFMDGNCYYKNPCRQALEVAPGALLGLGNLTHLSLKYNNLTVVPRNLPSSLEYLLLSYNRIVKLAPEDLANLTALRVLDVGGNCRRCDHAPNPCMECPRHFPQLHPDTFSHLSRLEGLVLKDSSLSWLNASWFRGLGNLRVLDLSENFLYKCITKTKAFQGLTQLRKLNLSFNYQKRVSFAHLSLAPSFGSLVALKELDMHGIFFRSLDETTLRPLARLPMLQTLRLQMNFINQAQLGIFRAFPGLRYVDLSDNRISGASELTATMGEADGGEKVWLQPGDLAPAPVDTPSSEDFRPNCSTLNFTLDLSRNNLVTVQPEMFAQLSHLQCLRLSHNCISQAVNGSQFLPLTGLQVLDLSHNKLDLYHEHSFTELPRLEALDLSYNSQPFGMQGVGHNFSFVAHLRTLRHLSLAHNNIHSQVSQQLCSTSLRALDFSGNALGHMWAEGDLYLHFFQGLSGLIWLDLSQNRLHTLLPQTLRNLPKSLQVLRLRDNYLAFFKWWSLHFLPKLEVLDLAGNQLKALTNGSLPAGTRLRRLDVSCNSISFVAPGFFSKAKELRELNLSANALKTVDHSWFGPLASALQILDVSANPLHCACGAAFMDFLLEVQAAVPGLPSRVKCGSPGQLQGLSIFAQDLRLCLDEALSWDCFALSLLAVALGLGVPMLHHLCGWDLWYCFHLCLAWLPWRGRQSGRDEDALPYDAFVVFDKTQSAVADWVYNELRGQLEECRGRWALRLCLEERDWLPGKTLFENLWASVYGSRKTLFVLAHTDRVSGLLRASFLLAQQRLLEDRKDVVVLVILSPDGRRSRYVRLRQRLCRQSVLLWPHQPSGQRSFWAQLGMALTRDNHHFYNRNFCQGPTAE
# Protocol: (§1) Samples and controls were tested in duplicate on recombinant HEK-293 cell lines expressing the various TLR and NOD receptors with an alkaline phosphatase reporter gene. Cells were incubated with or without 1 μM naltrexone in an antagonist assay using the Invivogen panel of TLR and NOD signalling transfectants. Results shown are for TLR4 and TLR9, TLR activation results are given as optical density (O.D.) values, which have been confirmed in three independent experiments.
# (§2) Low dose naltrexone (LDN) was tested in agonist and antagonist assays on a panel of TLR and NOD transfectants (TLR2, TLR3, TLR4, TLR5, TLR7, TLR8, TLR9, NOD1, NOD2). Screening assays were performed by Cayla-Invivogen (Toulouse, France).
# [2] = tested on: hormone-refractory prostate cancer; assay: Patient with hormone-refractory prostate cancer treated with Mycobacterium vaccae plus LDN; assay type: in vivo, human; details: one patient, LDN added to Mycobacterium vaccae treatment
# [3] = tested on: TLR2, TLR3, TLR4, TLR5, TLR7, TLR8, TLR9, NOD1, NOD2; assay: Agonist assays on panel of TLR and NOD transfectants; assay type: cell-based; details: TLR2, 3, 4, 5, 7, 8, 9, NOD1, NOD2
# Protocol: as §1, §2
# metastatic melanoma = assay: Patient with chemotherapy-resistant metastatic melanoma treated with LDN
# TLR4 [4] = biological target: T1, TLR4; assay: TLR4 antagonist assay, HEK-293 transfectants with alkaline phosphatase reporter gene (Invivogen panel); assay type: cell-based; details: 1 μM naltrexone, O.D. readout (FIG. 1)
# Protocol: as §1, §2
# T1 sequence (O00206 24-839, species assumed): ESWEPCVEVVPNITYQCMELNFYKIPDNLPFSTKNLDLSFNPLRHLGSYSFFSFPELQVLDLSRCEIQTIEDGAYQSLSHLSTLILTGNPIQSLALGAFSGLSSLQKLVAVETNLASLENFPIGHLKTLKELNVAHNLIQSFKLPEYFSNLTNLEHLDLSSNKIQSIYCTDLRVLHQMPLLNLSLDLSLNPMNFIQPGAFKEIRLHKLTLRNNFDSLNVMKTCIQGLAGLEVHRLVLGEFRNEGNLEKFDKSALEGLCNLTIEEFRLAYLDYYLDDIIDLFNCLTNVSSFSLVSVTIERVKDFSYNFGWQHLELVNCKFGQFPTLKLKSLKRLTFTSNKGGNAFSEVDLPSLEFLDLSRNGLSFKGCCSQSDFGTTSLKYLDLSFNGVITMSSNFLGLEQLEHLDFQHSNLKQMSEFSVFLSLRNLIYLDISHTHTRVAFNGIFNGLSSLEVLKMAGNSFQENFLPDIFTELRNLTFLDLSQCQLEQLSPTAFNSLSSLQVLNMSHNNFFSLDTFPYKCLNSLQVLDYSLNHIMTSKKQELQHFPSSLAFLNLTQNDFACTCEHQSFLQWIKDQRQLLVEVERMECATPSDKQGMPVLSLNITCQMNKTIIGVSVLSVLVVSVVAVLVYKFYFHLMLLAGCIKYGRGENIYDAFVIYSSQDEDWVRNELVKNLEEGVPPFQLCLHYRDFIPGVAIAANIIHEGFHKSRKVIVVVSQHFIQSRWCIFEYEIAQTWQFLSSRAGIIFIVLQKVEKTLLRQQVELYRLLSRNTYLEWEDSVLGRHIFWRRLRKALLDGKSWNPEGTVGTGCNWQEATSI
# T1 sequence (Q9Y6Y9 17-160 limits assumed, species assumed): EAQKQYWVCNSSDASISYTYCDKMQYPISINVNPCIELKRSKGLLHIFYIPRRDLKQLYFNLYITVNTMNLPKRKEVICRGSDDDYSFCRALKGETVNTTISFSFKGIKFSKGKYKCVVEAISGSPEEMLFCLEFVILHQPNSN
smiles,measurement,setting,value
"O=C1CC[C@@]2(O)[C@H]3Cc4ccc(O)c5c4[C@@]2(CCN3CC2CC2)[C@H]1O5 [LDN, morphinan-6-one,17-(cyclopropylmethyl)-4,5-epoxy-3,14-dihydroxy-(5α)]",antagonism of TLR4,TLR4 [1],weakly antagonise TLR4
same,antagonism of TLR9 (recognition of CpG DNA),"TLR9; antagonist assay, 1 μM naltrexone, O.D. readout (FIG. 1)",striking antagonistic effect; also recorded: inhibited recognition of CpG DNA
same,IC50,"TLR9; titration, TLR9-transfected cell line, naltrexone diluted in PBS or H2O (FIG. 2), read-out: IC50 for inhibition of TLR9",~50 µM
same,prostate-specific antigen levels,[2],drop in prostate-specific antigen levels
same,stimulation of signalling (agonism) through TLR and NOD receptors,[3],did not stimulate signalling through any of the receptors tested
same,time to development of vitiligo,metastatic melanoma; after administration of low dose naltrexone,≤ 48 h
same,development of vitiligo (sign of activated cytotoxic T cells against melanoma antigens),"metastatic melanoma; one patient previously given vaccine and radiotherapy, LDN as supportive treatment prior to more radiotherapy",marked vitiligo
same,antagonism of TLR4,TLR4 [4],mild antagonistic effect; also recorded: mild antagonist effect
